Assay results reported in patent US6962900B2, “Pharmaceutical being used for treating HIV infection, the composition and uses thereof” (priority 2001, dated 2005).
Entries after “also recorded” stand apart in the source; their conditions may differ. Peptide text beside a SMILES is read from it.

How the values were obtained:
gp41 N-peptide = target: T1, gp41 N-peptide (Human immunodeficiency virus type 1 group M subtype B, UniProt P04578); test: stability by melting curve (circular dichroism) of peptide complexed with gp41 N-peptide; assay type: physicochemical, HIV-1
T1 construct: The peptide solution containing Fusonex and gp41 N-peptide (35-70) was measured
T1 sequence (P04578 546-581): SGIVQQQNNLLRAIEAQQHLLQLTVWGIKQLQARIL
Experimental: This experiment determined the stability of a polypeptide by measuring its melting curve at different temperatures. The experiment was carried out on Aviv 62A DS circular dichroism spectrum apparatus. The temperature range for heating peptide solution was from 20° C. to 95° C.

HIV-1 gp160HXB = target: T2, HIV-1 gp160HXB (Human immunodeficiency virus type 1 group M subtype B, UniProt P04578); test: cell-cell fusion assay (luciferase reporter, synplasm formation induced by HIV-1 gp160HXB); assay type: cell-based
T2 construct: expressed in transfected cells; host or cells: 293T cells
T2 sequence (P04578 512-856): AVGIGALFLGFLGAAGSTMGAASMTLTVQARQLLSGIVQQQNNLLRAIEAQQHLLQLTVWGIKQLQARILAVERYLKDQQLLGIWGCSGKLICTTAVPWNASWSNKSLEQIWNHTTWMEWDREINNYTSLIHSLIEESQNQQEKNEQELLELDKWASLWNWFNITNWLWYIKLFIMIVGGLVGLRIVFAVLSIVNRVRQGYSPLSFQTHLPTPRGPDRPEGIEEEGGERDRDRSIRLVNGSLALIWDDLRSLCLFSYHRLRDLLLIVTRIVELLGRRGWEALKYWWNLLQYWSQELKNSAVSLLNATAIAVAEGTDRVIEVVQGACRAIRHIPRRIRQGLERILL
Text: The specific experiment methods are as follows: The T7 promoter was inserted into the pSP64 upstream sequence of the cloning site to assemble a luciferase reporter gene plasmid—Pst7luc. The internal ribozyme entry site (IRES) of encephalomyocarditis virus (CMCV) was linked with the 5′-terminal of luciferase gene as well as the downstream area of T7 promoter. CD4 gene, T7 polymerase gene, and HIV-1 gp160HXB gene were subcloned into the mammalian expression plasmid—PMT3.
In a 10 cm culture dish, the 293T cells were transferred by Calcium Phosphate Method. Equal quantities of gp160HXB gene and T7 polymerase gene were used to transfect the effector cells, and pSP64 and CD4 gene were used to transfect the target cells. The PMT3 plasmid in the absence of gp160HXB or CD4 gene was set as a negative control.
The cells with non-serous DMEM were rinsed, after the DNA precipitate was added. The cells were cultured for 30-40 minutes at 37° C. in 9 ml/dish non-serous DMEM. […]
The solution as a stock solution was put to serial dilution in culture medium before use. […] Two minutes after adding luciferase substrate to the black 96-well culture plate, measure the chemical fluorescence intensity with Spex fluorolog-3 fluorimeter, the emission wavelength being 552 nm and slit breadth being 7 mm. The average and standard deviation were calculated from the three data of each concentration point.

HIV = conditions: first and second stages of clinical trials; cited from earlier work

Compound | stability compared with T-20 (melting curve) (gp41 N-peptide; FIG. 4) | 50% melting temperature (gp41 N-peptide; heating 20° C. to 95° C.) | IC50 (HIV-1 gp160HXB) | inhibiting activity compared with T-20 (cell fusion induced by HIV-1 gp160HXB) (HIV-1 gp160HXB; at the same concentration, FIG. 5) | toxicity against the spinal cord (HIV)
CC[C@H](C)[C@H](NC(=O)[C@H](CCC(=O)O)NC(=O)[C@H](CCCNC(=N)N)NC(=O)[C@H](CCC(=O)O)NC(=O)[C@H](Cc1c[nH]c2ccccc12)NC(=O)[C@@H](NC(=O)[C@H](CCC(=O)O)NC(=O)[C@H](Cc1c[nH]c2ccccc12)NC(=O)[C@H](CO)NC(C)=O)[C@@H](C)O)C(=O)N[C@@H](CCC(=O)O)C(=O)N[C@@H](CC(N)=O)C(=O)N[C@@H](Cc1ccc(O)cc1)C(=O)N[C@H](C(=O)N[C@@H](CCCCN)C(=O)N[C@@H](CCC(N)=O)C(=O)N[C@H](C(=O)N[C@@H](Cc1ccc(O)cc1)C(=O)N[C@@H](CCCCN)C(=O)N[C@H](C(=O)N[C@@H](CC(C)C)C(=O)N[C@@H](CCC(=O)O)C(=O)N[C@@H](CCC(=O)O)C(=O)N[C@@H](CO)C(=O)N[C@@H](CCC(N)=O)C(=O)N[C@@H](CCC(=O)O)C(=O)N[C@@H](CCC(N)=O)C(=O)N[C@@H](CCC(N)=O)C(=O)N[C@@H](CC(=O)O)C(=O)N[C@@H](CCCNC(=N)N)C(=O)N[C@@H](CC(N)=O)C(=O)N[C@@H](CCC(=O)O)C(=O)N[C@@H](CCCCN)C(=O)N[C@@H](CC(=O)O)C(=O)N[C@@H](CC(C)C)C(=O)N[C@@H](CC(C)C)C(=O)N[C@@H](CCC(=O)O)C(N)=O)[C@@H](C)CC)[C@@H](C)CC)[C@@H](C)O [Fusonex] (Ac-SWETWEREIENYTKQIYKILEESQEQQDRNEKDLLE-NH2) | higher than that of T-20; also recorded: more stable than T-20 | 70 °C | 1.2 ± 0.2 nM | better inhibiting activity than T-20 | –
enfuvirtide | – | – | – | – | no toxicity against the spinal cord
